Test results taken from patent US9085561B2, “Cyclic urea- or lactam-substituted quinoxaline-type piperidines as ORL-1 modulators” (priority 2012, dated 2015).
Marks after values point to notes of the source that are not given here.

Assays:
[1] = target: human opioid receptor-like (ORL-1) (Homo sapiens, UniProt P41146); test: In vitro ORL-1 receptor [35S]GTPγS functional assay; format: biochemical
human CYP2D6 = human CYP2D6 (Homo sapiens, UniProt P10635); test: Cytochrome P450 2D6 inhibition (dextromethorphan O-demethylation, pooled human hepatic microsome)
[2] = system: mechanical hyperalgesia in rats subjected to partial sciatic nerve ligation; test: Seltzer model (partial sciatic nerve ligation) of neuropathic pain, paw pressure assay (PWT); format: in vivo, rat; settings: for maximum analgesic efficacy of pregabalin (10 mg/kg) as fraction of % reversal of Compound B9a: 3 hours after day 1 administration

Chain of human CYP2D6 (P10635 whole entry): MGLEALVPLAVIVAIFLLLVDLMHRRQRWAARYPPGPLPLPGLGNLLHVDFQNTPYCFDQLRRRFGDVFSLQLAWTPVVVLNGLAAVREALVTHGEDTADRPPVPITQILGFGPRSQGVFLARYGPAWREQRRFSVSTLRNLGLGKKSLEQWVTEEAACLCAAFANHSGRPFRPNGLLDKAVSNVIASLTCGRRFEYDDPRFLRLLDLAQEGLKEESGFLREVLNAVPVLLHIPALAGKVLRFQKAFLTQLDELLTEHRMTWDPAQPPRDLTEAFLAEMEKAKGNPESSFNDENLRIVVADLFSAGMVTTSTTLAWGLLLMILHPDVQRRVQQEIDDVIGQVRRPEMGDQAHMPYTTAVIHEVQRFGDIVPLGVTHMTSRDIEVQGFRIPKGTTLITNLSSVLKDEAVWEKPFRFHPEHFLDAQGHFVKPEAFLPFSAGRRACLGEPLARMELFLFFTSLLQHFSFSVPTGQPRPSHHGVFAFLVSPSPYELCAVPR
Chain of human opioid receptor-like (ORL-1) (P41146 whole entry): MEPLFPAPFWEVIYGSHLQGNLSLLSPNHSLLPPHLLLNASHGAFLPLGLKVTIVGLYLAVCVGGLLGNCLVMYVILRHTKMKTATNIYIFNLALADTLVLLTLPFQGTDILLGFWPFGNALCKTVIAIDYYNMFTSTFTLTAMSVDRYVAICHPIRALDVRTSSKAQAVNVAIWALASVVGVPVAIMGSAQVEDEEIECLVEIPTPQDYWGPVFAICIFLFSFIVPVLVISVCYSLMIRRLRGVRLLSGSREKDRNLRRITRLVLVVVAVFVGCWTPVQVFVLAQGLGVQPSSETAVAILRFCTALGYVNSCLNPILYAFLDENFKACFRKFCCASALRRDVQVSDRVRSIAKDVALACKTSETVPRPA

Nc1ccn(-c2nc3ccccc3n([C@H]3C[C@H]4CCC[C@@H](C3)N4[C@H]3C[C@@H]4CCC[C@@H](C4)C3)c2=O)c(=O)n1 [B5a(i), 1-((1R,1′R,3r,3′R,5S,5′S)-[3,9′-bi(9′-azabicyclo[3.3.1]nonan)]-3′-yl)-3-(4-amino-2-oxopyrimidin-1(2H)-yl)quinoxalin-2(1H)-one]
EC50 [1]: > 20 µM
IC50 (human CYP2D6): > 20 µM

O=C(O)Cn1cccc(-c2nc3ccccc3n([C@H]3C[C@H]4CCC[C@@H](C3)N4C3CCCCCCCCC3)c2=O)c1=O [BB13c(iii), 2-(3-(4-((1R,3r,5S)-9-cyclodecyl-9-azabicyclo[3.3.1]nonan-3-yl)-3-oxo-3,4-dihydroquinoxalin-2-yl)-2-oxopyridin-1(2H)-yl)acetic acid]
EC50 [1]: 0.101 ± 0.02 µM
IC50 (human CYP2D6): > 20 µM

O=c1cnn(-c2nc3ccccc3n([C@H]3C[C@H]4CC[C@@H](C3)N4[C@H]3C[C@@H]4CCC[C@@H](C4)C3)c2=O)c(=O)[nH]1 [Compound A9a, 2-(4-((1R,3R,5S)-8-((1R,3r,5S)-bicyclo[3.3.1]nonan-3-yl)-8-azabicyclo[3.2.1]octan-3-yl)-3-oxo-3,4-dihydroquinoxalin-2-yl)-1,2,4-triazine-3,5(2H,4H)-dione]
EC50 [1]: 0.378 ± 0.055 µM
IC50 (human CYP2D6): > 20 µM

O=c1cnn(-c2nc3ccccc3n([C@H]3C[C@H]4CCC[C@@H](C3)N4[C@H]3C[C@@H]4CCC[C@@H](C4)C3)c2=O)c(=O)[nH]1 [Compound B9a]
reversal compared with the pregabalin control ([2]; 1, 3, or 10 mg/kg, all measured time-points on the first day of administration): more effective reversal than the pregabalin control
effects against mechanical hyperalgesia ([2]; once daily administration (3 or 10 mg/kg) for seven days, rats with partial sciatic nerve ligation): statistically significant effects
% Reversal [mean] ([2]; rat Seltzer model, oral 1 mg/kg, 1 h after administration (day 1)): 27.0* %
% Reversal [mean] ([2]; rat Seltzer model, oral 1 mg/kg, 3 h after administration (day 1), 1 mg/kg): 37.0%
% Reversal [mean] ([2]; rat Seltzer model, oral 1 mg/kg, 5 h after administration (day 1)): 27.0* %
% Reversal [mean] ([2]; rat Seltzer model, oral 1 mg/kg, pre-administration): 0%
% Reversal [mean] ([2]; rat Seltzer model, oral 3 mg/kg once daily, 1 h after administration (day 4)): 40.8** %
% Reversal [mean] ([2]; rat Seltzer model, oral 3 mg/kg once daily, 1 h after administration (day 7)): 47.7** %
% Reversal [mean] ([2]; rat Seltzer model, oral 3 mg/kg once daily, 3 h after administration (day 4), 3 mg/kg): 46.2%
% Reversal [mean] ([2]; rat Seltzer model, oral 3 mg/kg once daily, 3 h after administration (day 7), 3 mg/kg): 55.2%
% Reversal [mean] ([2]; rat Seltzer model, oral 3 mg/kg once daily, 5 h after administration (day 4)): 36.9** %
% Reversal [mean] ([2]; rat Seltzer model, oral 3 mg/kg once daily, 5 h after administration (day 7)): 42.2** %
% Reversal [mean] ([2]; rat Seltzer model, oral 3 mg/kg, 1 h after administration (day 1)): 33.1** %
% Reversal [mean] ([2]; rat Seltzer model, oral 3 mg/kg, 3 h after administration (day 1), 3 mg/kg): 46.2%
% Reversal [mean] ([2]; rat Seltzer model, oral 3 mg/kg, 5 h after administration (day 1)): 34.6** %
% Reversal [mean] ([2]; rat Seltzer model, oral 3 mg/kg, pre-administration): 0%
% Reversal [mean] ([2]; rat Seltzer model, oral 10 mg/kg once daily, 1 h after administration (day 4)): 53.8** %
% Reversal [mean] ([2]; rat Seltzer model, oral 10 mg/kg once daily, 1 h after administration (day 7)): 50.0** %
% Reversal [mean] ([2]; rat Seltzer model, oral 10 mg/kg once daily, 3 h after administration (day 4), 10 mg/kg): 64.2%
% Reversal [mean] ([2]; rat Seltzer model, oral 10 mg/kg once daily, 3 h after administration (day 7), 10 mg/kg): 63.5%
% Reversal [mean] ([2]; rat Seltzer model, oral 10 mg/kg once daily, 5 h after administration (day 4)): 47.7** %
% Reversal [mean] ([2]; rat Seltzer model, oral 10 mg/kg once daily, 5 h after administration (day 7)): 42.2** %
% Reversal [mean] ([2]; rat Seltzer model, oral 10 mg/kg, 1 h after administration (day 1)): 49.2** %
% Reversal [mean] ([2]; rat Seltzer model, oral 10 mg/kg, 3 h after administration (day 1), 10 mg/kg): 61.5%
% Reversal [mean] ([2]; rat Seltzer model, oral 10 mg/kg, 5 h after administration (day 1)): 46.9** %
% Reversal [mean] ([2]; rat Seltzer model, oral 10 mg/kg, pre-administration): 0%
tolerance development with repeated administration ([2]; repeated administration for 7 days, rat Seltzer model): lack of tolerance development
IC50 (human CYP2D6): > 20 µM

Cc1nn(-c2nc3ccccc3n([C@H]3C[C@H]4CCC[C@@H](C3)N4[C@H]3C[C@@H]4CCC[C@@H](C4)C3)c2=O)c(=O)[nH]c1=O [Compound B10a, 2-(4-((1R,1′R,3r,3′R,5S,5′S)-[3,9′-bi(9′-azabicyclo[3.3.1]nonan)]-3′-yl)-3-oxo-3,4-dihydroquinoxalin-2-yl)-6-methyl-1,2,4-triazine-3,5(2H,4H)-dione]
EC50 [1]: > 20 µM
IC50 (human CYP2D6): > 20 µM

O=c1ccn(-c2nc3ccccc3n([C@H]3C[C@H]4CCC[C@@H](C3)N4[C@H]3C[C@@H]4CCC[C@@H](C4)C3)c2=O)c(=O)[nH]1 [Compound B13a, 1-(4-((1R,1′R,3r,3′R,5S,5′S)-[3,9′-bi(9′-azabicyclo[3.3.1]nonan)]-3′-yl)-3-oxo-3,4-dihydroquinoxalin-2-yl)pyrimidine-2,4(1H,3H)-dione]
EC50 [1]: > 20 µM
IC50 (human CYP2D6): > 20 µM

O=C1CN(c2nc3ccccc3n([C@H]3C[C@H]4CCC[C@@H](C3)N4[C@H]3C[C@@H]4CCC[C@@H](C4)C3)c2=O)C(=O)N1 [Compound B17a, 1-(4-((1R,1′R,3r,3′R,5S,5′S)-[3,9′-bi(9′-azabicyclo[3.3.1]nonan)]-3′-yl)-3-oxo-3,4-dihydroquinoxalin-2-yl)imidazolidine-2,4-dione]
EC50 [1]: > 20 µM
IC50 (human CYP2D6): > 20 µM

CC1(C)C(=O)NC(=O)N1c1nc2ccccc2n([C@H]2C[C@H]3CCC[C@@H](C2)N3[C@H]2C[C@@H]3CCC[C@@H](C3)C2)c1=O [Compound B19a, 1-(4-((1R,1′R,3r,3′R,5S,5′S)-[3,9′-bi(9′-azabicyclo[3.3.1]nonan)]-3′-yl)-3-oxo-3,4-dihydroquinoxalin-2-yl)-5,5-dimethylimidazolidine-2,4-dione]
EC50 [1]: > 20 µM
IC50 (human CYP2D6): > 20 µM

O=C1CNC(=O)N1c1nc2ccccc2n([C@H]2C[C@H]3CCC[C@@H](C2)N3[C@H]2C[C@@H]3CCC[C@@H](C3)C2)c1=O [Compound B20a, 3-(4-((1R,1′R,3r,3′R,5S,5′S)-[3,9′-bi(9′-azabicyclo[3.3.1]nonan)]-3′-yl)-3-oxo-3,4-dihydroquinoxalin-2-yl)imidazolidine-2,4-dione]
EC50 [1]: > 20 µM
IC50 (human CYP2D6): > 20 µM

O=c1[nH]cnn1-c1nc2ccccc2n([C@H]2C[C@H]3CCC[C@@H](C2)N3[C@H]2C[C@@H]3CCC[C@@H](C3)C2)c1=O [Compound B23a, 1-((1R,3r,3′R,5S,5′S)-[3,9′-bi(9′-azabicyclo[3.3.1]nonan)]-3′-yl)-3-(5-oxo-4,5-dihydro-1H-1,2,4-triazol-1-yl)quinoxalin-2(1H)-one]
EC50 [1]: > 20 µM
IC50 (human CYP2D6): 17.8 µM

O=c1cnn(-c2nc3ccccc3n([C@H]3C[C@H]4CCC[C@@H](C3)N4C3CCCCCCC3)c2=O)c(=O)[nH]1 [Compound H9c, 2-(4-((1R,3r,5S)-9-cyclooctyl-9-azabicyclo[3.3.1]nonan-3-yl)-3-oxo-3,4-dihydroquinoxalin-2-yl)-1,2,4-triazine-3,5(2H,4H)-dione]
EC50 [1]: 0.376 ± 0.016 µM
IC50 (human CYP2D6): > 20 µM

O=c1cnn(-c2nc3ccccc3n([C@H]3C[C@H]4CCC[C@@H](C3)N4[C@@H]3C[C@@H]4CCCC[C@@H](C4)C3)c2=O)c(=O)[nH]1 [Compound O9b, 2-(4-((1R,3R,5S)-9-((1R,6S,8s)-bicyclo[4.3.1]decan-8-yl)-9-azabicyclo[3.3.1]nonan-3-yl)-3-oxo-3,4-dihydroquinoxalin-2-yl)-1,2,4-triazine-3,5(2H,4H)-dione]
EC50 [1]: > 20 µM
IC50 (human CYP2D6): > 20 µM

O=c1ccn(-c2nc3ccccc3n([C@H]3C[C@H]4CCC[C@@H](C3)N4[C@@H]3C[C@@H]4CCCC[C@@H](C4)C3)c2=O)c(=O)[nH]1 [Compound O13b, 1-(4-((1R,3R,5S)-9-((1R,6S,8s)-bicyclo[4.3.1]decan-8-yl)-9-azabicyclo[3.3.1]nonan-3-yl)-3-oxo-3,4-dihydroquinoxalin-2-yl)pyrimidine-2,4(1H,3H)-dione]
EC50 [1]: > 20 µM
IC50 (human CYP2D6): > 20 µM

CC1(C)C(=O)NC(=O)N1c1nc2ccccc2n([C@H]2C[C@H]3CCC[C@@H](C2)N3[C@@H]2C[C@@H]3CCCC[C@@H](C3)C2)c1=O [Compound O19a, 1-(4-((1R,3R,5S)-9-((1R,6S,8s)-bicyclo[4.3.1]decan-8-yl)-9-azabicyclo[3.3.1]nonan-3-yl)-3-oxo-3,4-dihydroquinoxalin-2-yl)-5,5-dimethylimidazolidine-2,4-dione]
EC50 [1]: > 20 µM
IC50 (human CYP2D6): > 20 µM

CC(C)C[C@H](CN)CC(=O)O [Pregabalin, pregabalin, reference compound]
% Reversal [mean] ([2]; rat Seltzer model, positive control column, oral 10 mg/kg, 3 h after administration (day 1), 10 mg/kg): 28.0** %
% Reversal [mean] ([2]; rat Seltzer model, positive control column, oral 10 mg/kg, 3 h after administration (day 1), listed as pregabalin, 10 mg/kg): 28.0%
% Reversal [mean] ([2]; rat Seltzer model, positive control, oral 10 mg/kg, 1 h after administration (day 1)): 17.0%
% Reversal [mean] ([2]; rat Seltzer model, positive control, oral 10 mg/kg, 5 h after administration (day 1)): 15.0%
% Reversal [mean] ([2]; rat Seltzer model, positive control, oral 10 mg/kg, pre-administration): 0%
maximum analgesic efficacy of pregabalin (10 mg/kg) as fraction of % reversal of Compound B9a ([2]; versus B9a 1 mg/kg): about 0.76
maximum analgesic efficacy of pregabalin (10 mg/kg) as fraction of % reversal of Compound B9a ([2]; versus B9a 3 mg/kg): about 0.61
maximum analgesic efficacy of pregabalin (10 mg/kg) as fraction of % reversal of Compound B9a ([2]; versus B9a 10 mg/kg): about 0.46

C[C@@H]1C[C@@H]2C[C@H](C1)C[C@@H](N1[C@@H]3CCC[C@H]1C[C@@H](n1c(=O)c(-c4cc(C(=O)O)c[nH]c4=O)nc4ccccc41)C3)C2 [R28a(i), 5-(4-((1R,1′R,3r,3′R,5S,5′S,7S)-7-methyl-[3,9′-bi(9′-azabicyclo[3.3.1]nonan)]-3′-yl)-3-oxo-3,4-dihydroquinoxalin-2-yl)-6-oxo-1,6-dihydropyridine-3-carboxylic acid]
IC50 (human CYP2D6): > 20 µM

CC1(C)[C@H]2CC[C@@H](CCN3[C@@H]4CCC[C@H]3C[C@@H](n3c(=O)c(-c5ccc[nH]c5=O)nc5ccccc53)C4)[C@@H]1C2 [U55a(i), 1-((1R,3S,5S)-9-(2-((1S,2S,5S)-6,6-dimethylbicyclo[3.1.1]heptan-2-yl)ethyl)-9-azabicyclo[3.3.1]nonan-3-yl)-3-(2-oxo-1,2-dihydropyridin-3-yl)quinoxalin-2(1H)-one]
IC50 (human CYP2D6): > 20 µM
